How the values were obtained:
IFN-γ [1] = test: Serum IFN-γ in OVA/OVA323-339 stimulated DO11.10 mice (ELISA); assay type: in vivo, mouse; conditions: for IFN-γ level in pg/ml serum after day 0: 3 hours after first i.p. injection; for IFN-γ level in pg/ml serum after day 14: 3 hours after second i.p. injection
Description: Groups of six, 8-10 weeks old, male or female DO11.10 mice weighing between 20-22 g are obtained as described in Murphy K. M. et al. 1990, Science 250:1720-1722. The animals are maintained in Microvent positive air supply cages (22±1° C., 55±5% relative humidity, 50-70 changes of fresh air/hour and 12 hours day and night cycle) with sawdust bedding. Standard laboratory mouse chow (SNIFF, Soest, Germany) and drinking water is given ad libidum. The animals are used for the study after an adaptation period of 10-14 days and grouped (6 per group) in type II Macrolon cages one day before the experiment.
Groups of six DO11.10 mice are i.p. injected with 10 μg of ovalbumin (OVA, Sigma, St. Louis, USA) absorbed to 2 mg of Al(OH)3 (Alu Gel S; 2% Al(OH)3, Serva, Heidelberg, FRG) and diluted with saline to a volume of 0.2 ml or various amounts (1, 3, 10, 30, or 90 μg per mouse) of alum-precipitated OVA323-339 peptide (98% purity, piChem R&D, Graz Austria) in 0.2 ml on days 0 and 14. Before and at different time points on days 0 and 14 after the OVA or OVA323-339 peptide administration about 200 μl of blood are collected by puncture of the retro-orbital plexus under ether anesthesia.
The sera are collected and stored frozen at −20° C. until analyzed. […]
Murine IL-2, IFN-γ and IL-4 are analyzed by immunoassays (Quantikine R&D Systems, Minneapolis, Minn., USA). Results are expressed as pg per ml serum expressed as mean±SEM pg of the cytokine indicated per ml serum. Test and control groups are evaluated by Dunn test by Kruskall-Wallis One Way Anova using the SigmaStat® program. […]
Mice of the control group are injected with alum. Blood is collected before and at 2, 4, and 6 hours after the first peptide injection. INF-γ is determined in the sera by an ELISA. Results are expressed as mean pg per ml serum±SEM. […]

CD25 on CD8+ T cells = test: CD25 expression on CD8+ T cells of peptide-stimulated OT-1 mice (FACS); assay type: in vivo, mouse; conditions: 100 μg OVA257-264, after 7 hours
Description: The animals are maintained in Microvent positive air supply cages (22±1° C., 55±5% relative humidity, 50-70 changes of fresh air/hour and 12 hours day and night cycle) with sawdust bedding.

CD69 on CD8+ T cells = test: CD69 expression on CD8+ T cells of antigen-stimulated OT-1 mice (FACS); assay type: in vivo, mouse
Description: (§1) OT-1 mice are obtained as described in Hogquist et al., 1994, Cell 76(1)17-27. The animals are maintained in Microvent positive air supply cages (22±1° C., 55±5% relative humidity, 50-70 changes of fresh air/hour and 12 hours day and night cycle) with sawdust bedding. Standard laboratory mouse chow (SNIFF, Soest, Germany) and drinking water is given ad libitum. Groups of two to four, 8-10 weeks old, male or female OT-1 mice weighing between 20-25 g are used for the experiments described. The animals are grouped (4 per group) in type II Macrolon cages one day before the experiment.
Doses of 3, 0.3 and 0.1 mg/kg b.w. are administered orally by gavage 2 hours before antigen challenge. […]
(§2) Single cell suspensions of spleen or blood containing approximately 1×10^6 cells in 100 μl of FACS buffer are used for staining. […] Lymphocytes are gated in the FSC/SSC dot blot according to size and granularity and further analyzed for expression of CD8, TCR Vβ5 expression and activation markers. Data are presented as original dot blots or are calculated from dot blots as percentage of cells positively stained for TCR or activation markers within the CD8^+ population.
Data calculated from FACS analysis or serum cytokine determination are given as individual values for each animal. Data are analysed for normal distribution and then the ANOVA test for multiple comparison is applied using SigmaStat software. […]

CD8+ T cells = test: Frequency of CD8+ T cells in blood and spleen of OT-1 mice (FACS); assay type: in vivo, mouse
Description: as §1
Doses of 3, 0.3 and 0.1 mg/kg b.w. are administered orally by gavage 2 hours before antigen challenge. The compound is diluted with solvent (Neoral Placebo) and given in a volume of 0.2 ml. Animals in the control group receive the solvent only. Ovalbumin-derived peptide (OVA257-264, […], >80% purity, piChemie R&D, Graz, Austria) or whole OVA (Sigma) are used as antigens. Both are diluted in PBS and administerd i.p. in a final volume of 0.2 ml. At various time points after OVA257-264 peptide injection about 200 μl blood is withdrawn from the retro-orbital plexus under ether anesthesia. In order to avoid coagulation, blood is collected in EDTA-containing buffer. Mice are killed by cervical dislocation and the spleen is excised. Single cell suspension are prepared in PBS by gently pressing the spleen through a 100 μm cell strainer. Finally, blood and spleen cells are washed with FACS buffer (PBS, 1 g/l EDTA, 1 g/l NaN3, 10% FCS; pH 7.1) and taken up in the same buffer for FACS analysis.
as §2

IFN-γ [2] = test: Serum IFN-γ in OVA257-264 stimulated OT-1 mice (sandwich ELISA); assay type: in vivo, mouse
Description: as §1
(§3) Cells are stimulated as described above and supernatant is harvested after 48 hours. The quantity of cytokines released by T cells into the culture medium after antigen stimulation is assayed by conventional sandwich ELISA. […] Specifically bound cytokines are quantified using biotinylated secondary antibodies JES6-5H4 (anti-IL-2), BVD6-24G2 (anti-IL-4), TRFK4 (anti-IL-5), SXC-1 (anti-IL-10) and XMG1.2 (anti-IFN-γ) followed by extravidin peroxidase and TMB substrate (both from Sigma). Absorption is measured at 450 and 690 nm on a Spectramax 340PC reader (Molecular Devices, Sunnyvale, Calif.). All cytokines are quantified with standard curves obtained with known amounts of recombinant mouse cytokines using SoftMax 3 software. […]

IL-2 = test: Serum IL-2 in OVA257-264 stimulated OT-1 mice (sandwich ELISA); assay type: in vivo, mouse
Description: as §1, §3

Splenocytes of OT-1 mice [3] = test: T cell proliferation assay, OT-1 splenocytes; assay type: cell-based, mouse; conditions: high amounts of OVA protein
Description: Splenocytes (4×10^5 cells/well) of OT-1 mice are stimulated in 200 μl final volume in 96-well flat bottomed plates with titrated amounts of OVA or OVA257-264 peptide at 37°. As medium RPMI 1640 supplemented with 10% FCS, 2.0 g/l NaHCO3, 2 mM L-glutamin, 100 IU/ml penicillin, 100 μg/ml streptomycin and 5×10^−5 M β-mercaptoethanol (Sigma, Vienna, Austria) is used. After 48 hours, cells are pulsed with 0.5 μCi ^3H-thymidine for 8 hours and the incorporated radioactivity is measured on a liquid scintillation β-counter (Trilux, 1450 Microbeta, Wallac, Turku, Finland).

Splenocytes of OT-1 mice [4] = test: Cytokine production assay, OT-1 splenocytes; assay type: cell-based, mouse; conditions: high amounts of OVA protein
Description: Cells are stimulated as described above and supernatant is harvested after 48 hours. The quantity of cytokines released by T cells into the culture medium after antigen stimulation is assayed by conventional sandwich ELISA. Microtiter plates (Nunc-Immunoplate™) are coated with the cytokine-specific capture antibodies JES6-1A12 (anti-IL-2), 11B11 (anti-IL-4), TRFK5 (anti-IL-5), JES5-2A5 (anti-IL-10) or R4-6A2 (anti-IFN-γ) at 4° overnight. Supernatants are incubated on the coated plates for 2 hours. Specifically bound cytokines are quantified using biotinylated secondary antibodies JES6-5H4 (anti-IL-2), BVD6-24G2 (anti-IL-4), TRFK4 (anti-IL-5), SXC-1 (anti-IL-10) and XMG1.2 (anti-IFN-γ) followed by extravidin peroxidase and TMB substrate (both from Sigma). Absorption is measured at 450 and 690 nm on a Spectramax 340PC reader (Molecular Devices, Sunnyvale, Calif.). All cytokines are quantified with standard curves obtained with known amounts of recombinant mouse cytokines using SoftMax 3 software. All mAbs and recombinant mouse cytokine standards are purchased from BD PharMingen, Heidelberg, Germany.

[5] = peptide-induced activation in OT-1 mice

p/p: 10 μg OVA323-339 peptide/10 μg OVA323-339 peptide i.p. on days 0 and 14 (KISQAVHAAHAEINEAG; UniProt P01012 323-339, looked up, fragment)
IFN-γ level in pg/ml serum after day 0 (IFN-γ [1]): 483.215 ± 134.641 pg/mL
IFN-γ level in pg/ml serum after day 14 (IFN-γ [1]): 554.136 ± 110.652 pg/mL

OVA257-264: peptide derived from chicken ovalbumin containing amino acids from position 257 to 264
maximal up-regulation of CD25 (CD25 on CD8+ T cells): ca. 40 fold increase
maximal up-regulation of CD69 (CD69 on CD8+ T cells; 100 μg OVA257-264, after 3 hours): ca. 155 fold increase
change of CD8+ T cells in the spleen (CD8+ T cells; 100 μg OVA257-264 i.p.): no significant decrease
frequency of CD8+ expressing cells among the lymphocyte population in the blood (CD8+ T cells; 100 μg OVA257-264 i.p., within 3 hours, from around 30%): less than 2.5%
time of early peak of serum IFN-γ (IFN-γ [2]; [5]): 4 h
minimal amount required to induce significant serum quantities of IFN-γ (IFN-γ [2]; per animal, i.p., 4 hours): 30 µg
time of early peak of serum IL-2 (IL-2; [5]): 4 h
minimal amount required to induce significant serum quantities of IL-2 (IL-2; per animal, i.p., 4 hours): 30 µg

B1: OVA: chicken ovalbumin (protein, UniProt P01012 2-386, looked up)
Ovalbumin: GSIGAASMEFCFDVFKELKVHHANENIFYCPIAIMSALAMVYLGAKDSTRTQINKVVRFDKLPGFGDSIEAQCGTSVNVHSSLRDILNQITKPNDVYSFSLASRLYAEERYPILPEYLQCVKELYRGGLEPINFQTAADQARELINSWVESQTNGIIRNVLQPSSVDSQTAMVLVNAIVFKGLWEKAFKDEDTQAMPFRVTEQESKPVQMMYQIGLFRVASMASEKMKILELPFASGTMSMLVLLPDEVSGLEQLESIINFEKLTEWTSSNVMEERKIKVYLPRMKMEEKYNLTSVLMAMGITDVFSSSANLSGISSAESLKISQAVHAAHAEINEAGREVVGSAEAGVDAASVSEEFRADHPFLFCIKHIATNAVLFFGRCVSP
increase of CD69 expression in the spleen (CD69 on CD8+ T cells; 1 mg OVA i.p., late (7-24 hours)): ≤ 2.5 fold
frequency of CD8+ T cells in both spleen and blood (CD8+ T cells; 1 mg OVA i.p., over 48 hours): declines marginally
serum INF-γ levels after challenge with OVA-protein (IFN-γ [1]; given amount (10 μg) of OVA-protein): under the detection limit
INF-γ levels after second OVA exposure versus before (IFN-γ [1]; primary OVA, second OVA exposure 2 weeks later): fail to increase
serum INF-γ levels versus alum alone (IFN-γ [1]; primary sensitization with 10 μg of OVA): does not change
proliferation of OT-1 splenocytes in vitro (Splenocytes of OT-1 mice [3]): induce proliferation
cytokine release of OT-1 splenocytes in vitro (Splenocytes of OT-1 mice [4]): cytokine release

B2: o/o: 10 μg OVA/10 μg OVA i.p. on days 0 and 14 (protein, UniProt P01012 2-386, looked up)
Ovalbumin: B1 Ovalbumin
IFN-γ level in pg/ml serum after day 0 (IFN-γ [1]): 3.788 ± 1.495 pg/mL
IFN-γ level in pg/ml serum after day 14 (IFN-γ [1]): 6.796 ± 6.189 pg/mL
